Assay results from PubChem BioAssay AID248 (DTP/NCI, 2004).
Inconclusive results and toxic doses are left out.

Tested on: L1210 leukemia ip in BDF1 mice, survival T/C
Assay: NCI In Vivo Anticancer Drug Screen. Data for tumor model L1210 Leukemia (intraperitoneal) in B6D2F1 (BDF1) mice
Settings: endpoint: mean survival time, higher = longer survival
In short: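 Transplantable tumor model; survival measured in treated vs vehicle control mice. Value = treated/control.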

Nc1ncnc2c1ncn2C1OCC(O)C1CO (stereo not drawn)
T/C (dose: 50.0 mg/kg/injection, schedule: Q01DX001 (ip), vehicle: saline): 111 % of control
T/C (dose: 100.0 mg/kg/injection, schedule: Q01DX001 (ip), vehicle: saline): 109 % of control
T/C (dose: 200.0 mg/kg/injection, schedule: Q01DX001 (ip), vehicle: saline): 105 % of control

CCN1C(=O)C2C3C=CC(C3)C2C1=O (stereo not drawn)
T/C (dose: 25.0 mg/kg/injection, schedule: Q04DX003 (ip), vehicle: saline with Tween-80): 97 % of control
T/C (dose: 50.0 mg/kg/injection, schedule: Q04DX003 (ip), vehicle: saline with Tween-80): 104 % of control

CCCCNc1c(C(=O)OCC)c[nH]c(=O)c1C(C)=O
T/C (dose: 100.0 mg/kg/injection, schedule: Q04DX003 (ip), vehicle: Klucel (hydroxypropylcellulose) (HPC)): 97 % of control
T/C (dose: 200.0 mg/kg/injection, schedule: Q04DX003 (ip), vehicle: Klucel (hydroxypropylcellulose) (HPC)): 97 % of control
T/C (dose: 400.0 mg/kg/injection, schedule: Q04DX003 (ip), vehicle: Klucel (hydroxypropylcellulose) (HPC)): 87 % of control
